Measurements published in patent publication US10077261B2, “Imidazolin-5-one derivative useful as FASN inhibitors for the treatment of cancer” (Janssen Pharmaceutica NV, priority 2012, dated 2018).

Target: T1, hFASN enzyme (full length) (Homo sapiens, UniProt P49327)
T1 construct: 10 μL hFASN enzyme (full length, 300 ng, purified in house); made in house
Assay: Fatty Acid Synthase (FASN) inhibition scintillation proximity assay
Assay type: biochemical
Conditions: for inhibition at 10 µM: read-out: Human FASN % inhibition @ 10 μM, 10 μM test compound; for IC50: read-out: Human FASN pIC50 (converted)
In short: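 Full-length in-house purified enzyme (300 ng) was tested in 100 mM KH2PO4 pH 7.5, 1 mM DTT with ³H-acetyl-CoA and malonyl-CoA as substrates; compounds ranged 0.01–30 μM. Reactions were stopped with streptavidin imaging beads, read by LEADseeker at 610 nm, and fitted to a 4-parameter logistic curve.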

T1 sequence (P49327 whole entry): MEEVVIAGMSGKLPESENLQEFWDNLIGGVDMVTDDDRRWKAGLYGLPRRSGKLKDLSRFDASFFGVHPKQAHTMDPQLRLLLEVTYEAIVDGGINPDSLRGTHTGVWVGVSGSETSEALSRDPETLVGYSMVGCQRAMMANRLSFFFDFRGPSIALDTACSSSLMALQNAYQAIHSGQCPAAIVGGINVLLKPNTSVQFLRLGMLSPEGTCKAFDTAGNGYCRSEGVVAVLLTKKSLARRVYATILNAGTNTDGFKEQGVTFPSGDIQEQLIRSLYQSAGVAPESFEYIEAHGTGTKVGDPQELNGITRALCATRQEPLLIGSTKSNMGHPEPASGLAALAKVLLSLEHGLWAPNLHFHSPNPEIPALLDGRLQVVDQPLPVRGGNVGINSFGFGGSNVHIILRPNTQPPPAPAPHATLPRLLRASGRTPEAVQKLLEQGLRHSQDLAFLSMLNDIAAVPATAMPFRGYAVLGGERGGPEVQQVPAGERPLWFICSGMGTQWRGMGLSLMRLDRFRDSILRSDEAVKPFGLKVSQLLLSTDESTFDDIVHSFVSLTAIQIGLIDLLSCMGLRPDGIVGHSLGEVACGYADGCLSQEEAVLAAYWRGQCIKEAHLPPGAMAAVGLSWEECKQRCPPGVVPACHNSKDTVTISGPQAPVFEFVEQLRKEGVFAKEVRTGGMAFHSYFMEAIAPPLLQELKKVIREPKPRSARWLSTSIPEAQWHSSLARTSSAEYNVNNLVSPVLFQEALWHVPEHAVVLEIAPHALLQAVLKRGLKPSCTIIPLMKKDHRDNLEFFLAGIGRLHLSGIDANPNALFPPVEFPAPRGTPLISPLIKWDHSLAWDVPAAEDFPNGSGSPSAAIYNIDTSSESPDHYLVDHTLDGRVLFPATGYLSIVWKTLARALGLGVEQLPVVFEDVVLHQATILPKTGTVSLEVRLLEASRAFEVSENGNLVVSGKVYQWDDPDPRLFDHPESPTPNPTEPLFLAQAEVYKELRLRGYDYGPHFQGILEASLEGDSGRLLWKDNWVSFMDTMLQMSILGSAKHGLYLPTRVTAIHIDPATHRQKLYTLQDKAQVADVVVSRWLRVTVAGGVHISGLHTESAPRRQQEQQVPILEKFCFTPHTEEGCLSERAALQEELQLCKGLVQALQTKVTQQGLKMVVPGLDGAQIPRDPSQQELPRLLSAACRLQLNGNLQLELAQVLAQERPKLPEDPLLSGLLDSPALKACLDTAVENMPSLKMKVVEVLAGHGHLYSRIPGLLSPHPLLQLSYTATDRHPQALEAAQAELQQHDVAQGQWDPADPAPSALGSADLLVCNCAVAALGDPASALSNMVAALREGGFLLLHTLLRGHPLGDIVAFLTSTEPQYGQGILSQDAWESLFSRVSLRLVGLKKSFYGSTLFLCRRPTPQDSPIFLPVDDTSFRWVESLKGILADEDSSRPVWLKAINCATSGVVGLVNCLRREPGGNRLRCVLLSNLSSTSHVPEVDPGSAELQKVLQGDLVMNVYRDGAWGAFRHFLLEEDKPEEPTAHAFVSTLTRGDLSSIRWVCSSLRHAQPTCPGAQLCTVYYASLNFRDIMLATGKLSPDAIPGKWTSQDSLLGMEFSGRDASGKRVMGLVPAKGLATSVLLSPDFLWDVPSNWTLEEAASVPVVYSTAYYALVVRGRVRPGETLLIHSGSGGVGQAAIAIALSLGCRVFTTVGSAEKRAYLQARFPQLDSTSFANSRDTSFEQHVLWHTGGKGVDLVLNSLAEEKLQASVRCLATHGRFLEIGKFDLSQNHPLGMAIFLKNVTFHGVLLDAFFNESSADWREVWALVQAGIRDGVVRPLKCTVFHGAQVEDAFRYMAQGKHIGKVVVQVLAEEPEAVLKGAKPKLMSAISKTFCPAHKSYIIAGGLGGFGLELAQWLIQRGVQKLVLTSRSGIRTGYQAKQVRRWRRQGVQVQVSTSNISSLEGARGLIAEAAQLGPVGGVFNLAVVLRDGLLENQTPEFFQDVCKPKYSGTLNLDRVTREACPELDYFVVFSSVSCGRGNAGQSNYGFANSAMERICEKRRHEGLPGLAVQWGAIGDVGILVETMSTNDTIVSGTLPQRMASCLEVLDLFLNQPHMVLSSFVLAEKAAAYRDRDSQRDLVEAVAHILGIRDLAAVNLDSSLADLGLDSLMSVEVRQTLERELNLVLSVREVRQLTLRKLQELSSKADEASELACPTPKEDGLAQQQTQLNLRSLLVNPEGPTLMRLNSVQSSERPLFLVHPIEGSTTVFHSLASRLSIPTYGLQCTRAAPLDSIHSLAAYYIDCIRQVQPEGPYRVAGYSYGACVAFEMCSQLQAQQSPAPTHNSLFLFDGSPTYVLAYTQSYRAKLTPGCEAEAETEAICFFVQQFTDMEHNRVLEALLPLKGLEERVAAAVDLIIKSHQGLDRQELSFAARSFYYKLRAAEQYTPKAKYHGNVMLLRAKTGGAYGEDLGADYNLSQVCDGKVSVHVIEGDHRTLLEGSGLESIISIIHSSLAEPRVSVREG

Question: Which results are given for `O=C(C1CC1)N1CCC[C@H](CN2C(=O)C3(CC3)N=C2c2ccc(-c3ccc4sccc4c3)cc2)C1` [compound 817, (S)-5-(4-(benzo[b]thiophen-5-yl)phenyl)-6-((1-(cyclopropanecarbonyl)piperidin-3-yl)methyl)-4,6-diazaspiro[2.4]hept-4-en-7-one]?
Answer: inhibition at 10 µM: 1%; IC50: > 10 µM

Question: For `N#Cc1cccc(-c2ccc(C3=NC4(CCCC4)C(=O)N3C[C@@H]3CCN(C(=O)C4CC4)C3)cc2)c1` [compound 83, 4′-(3-{[(3R)-1-(Cyclopropylcarbonyl)pyrrolidin-3-yl]methyl}-4-oxo-1,3-diazaspiro[4.4]non-1-en-2-yl)biphenyl-3-carbonitrile], which inhibition at 10 µM is on record?
Answer: The inhibition at 10 µM was 65.6%.

Question: What about the IC50 of the same compound?
Answer: Its IC50 is 4.79 µM.

Question: Which inhibition at 10 µM does the source give for `Cc1cc(-c2ccc3c(cnn3C)c2)ccc1C1=NC2(CC2)C(=O)N1CC1CN(C(=O)c2cccnc2)C1` [compound 805, 5-(2-methyl-4-(1-methyl-1H-indazol-5-yl)phenyl)-6-((1-nicotinoylazetidin-3-yl)methyl)-4,6-diazaspiro[2.4]hept-4-en-7-one] here?
Answer: Its inhibition at 10 µM is 14%.

Question: What about the IC50 of the same compound?
Answer: Its IC50 is greater than 10 µM.

Question: How did the inhibition at 10 µM turn out when `O=C(C1CC1)N1CC(CN2C(=O)C3(CCNCC3)N=C2c2ccc(-c3ccc4occc4c3)cc2)C1` [compound 130, 2-[4-(1-Benzofuran-5-yl)phenyl]-3-{[1-(cyclopropylcarbonyl)azetidin-3-yl]methyl}-1,3,8-triazaspiro[4.5]dec-1-en-4-one] was run?
Answer: Its inhibition at 10 µM is 74%.

Question: What about the IC50 of the same compound?
Answer: The IC50 was 3.8 µM.

Question: Which inhibition at 10 µM does the source give for `O=C(c1nccs1)N1CCC(CN2C(=O)C3(CCOC3)N=C2c2ccc(-c3ccc4occc4c3)cc2)C1` (stereo not drawn) [compound 934, 2-(4-(benzofuran-5-yl)phenyl)-3-((1-(thiazole-2-carbonyl)pyrrolidin-3-yl)methyl)-7-oxa-1,3-diazaspiro[4.4]non-1-en-4-one] here?
Answer: Its inhibition at 10 µM is 27%.

Question: And the IC50?
Answer: Its IC50 is greater than 10 µM.

Question: How did the inhibition at 10 µM turn out when `Cn1cc(-c2ccc(-c3ccc(C4=NC5(CCOCC5)C(=O)N4C[C@@H]4CCN(C(=O)C(F)(F)F)C4)cc3)cc2)cn1` [compound 659, 2-[4′-(1-Methyl-1H-pyrazol-4-yl)biphenyl-4-yl]-3-{[(3R)-1-(trifluoroacetyl)pyrrolidin-3-yl]methyl}-8-oxa-1,3-diazaspiro[4.5]dec-1-en-4-one] was run?
Answer: The inhibition at 10 µM was 38%.

Question: And the IC50?
Answer: The IC50 was roughly 8.32 µM.

Question: For `O=C(C1CC1)N1CCC[C@@H](CN2C(=O)C3(CC3)N=C2c2ccc(-c3ccc(-c4cccc(Cl)c4)cc3)cc2)C1` [compound 820, (R)-5-(3″-chloro-[1,1′:4′,1″-terphenyl]-4-yl)-6-((1-(cyclopropanecarbonyl)piperidin-3-yl)methyl)-4,6-diazaspiro[2.4]hept-4-en-7-one], which inhibition at 10 µM is on record?
Answer: Its inhibition at 10 µM is 33%.

Question: And the IC50?
Answer: Its IC50 is greater than 10 µM.

Question: With `O=C1CCc2ccc(-c3ccc(C4=NC5(CC5)C(=O)N4C[C@@H]4CCN(C(=O)C5CC5)C4)cc3)cc2N1` [compound 809, (R)-7-(4-(6-((1-(cyclopropanecarbonyl)pyrrolidin-3-yl)methyl)-7-oxo-4,6-diazaspiro[2.4]hept-4-en-5-yl)phenyl)-3,4-dihydroquinolin-2(1H)-one] as the compound, how does the inhibition at 10 µM read?
Answer: The inhibition at 10 µM was 29%.

Question: What about the IC50 of the same compound?
Answer: Its IC50 is greater than 10 µM.

Question: With `COC(=O)N1CC[C@@H](CN2C(=O)C3(CCOCC3)N=C2c2ccc(-c3ccc4occc4c3)cc2)C1` [compound 889, (S)-methyl 3-((2-(4-(benzofuran-5-yl)phenyl)-4-oxo-8-oxa-1,3-diazaspiro[4.5]dec-1-en-3-yl)methyl)pyrrolidin-1-carboxylate] as the compound, how does the inhibition at 10 µM read?
Answer: The inhibition at 10 µM was 44%.

Question: And the IC50?
Answer: The IC50 was greater than 10 µM.

Question: What does the source list for `O=C(N1CCCC1)N1CC(CN2C(=O)C3(CCOCC3)N=C2c2ccc(-c3ccc4occc4c3)cc2)C1` [compound 705, 2-[4-(1-Benzofuran-5-yl)phenyl]-3-{[1-(pyrrolidin-1-ylcarbonyl)azetidin-3-yl]methyl}-8-oxa-1,3-diazaspiro[4.5]dec-1-en-4-one]?
Answer: inhibition at 10 µM: 71%; IC50: 2.69 µM

Question: What does the source list for `CC(O)C(=O)N1CC[C@@H](CN2C(=O)C3(CCOC3)N=C2c2ccc(-c3ccc4c(cnn4C)c3)cc2)C1` (stereo partly drawn) [compound 691, 3-{[(3R)-1-(2-Hydroxypropanoyl)pyrrolidin-3-yl]methyl}-2-[4-(1-methyl-1H-indazol-5-yl)phenyl]-7-oxa-1,3-diazaspiro[4.4]non-1-en-4-one]?
Answer: inhibition at 10 µM: 63%; IC50: ~7.41 µM

Question: `Cc1cc2cc(-c3ccc(C4=NC5(CC5)C(=O)N4CC4CN(C(=O)C5CC5)C4)cc3C)ccc2s1` [compound 446, 6-{[1-(Cyclopropylcarbonyl)azetidin-3-yl]methyl}-5-[3-methyl-4-(2-methyl-1-benzothiophen-5-yl)phenyl]-4,6-diazaspiro[2.4]hept-4-en-7-one] was tested. Which inhibition at 10 µM did it give?
Answer: Its inhibition at 10 µM is 60%.

Question: What about the IC50 of the same compound?
Answer: The IC50 was 5.01 µM.

Question: How did the inhibition at 10 µM turn out when `O=C(C1CC1)N1CCC[C@H](CN2C(=O)C3(CC3)N=C2c2ccc(-c3ccc4occc4c3)cc2)C1` [compound 818, (S)-5-(4-(benzofuran-5-yl)phenyl)-6-((1-(cyclopropanecarbonyl)piperidin-3-yl)methyl)-4,6-diazaspiro[2.4]hept-4-en-7-one] was run?
Answer: Its inhibition at 10 µM is 2%.

Question: And the IC50?
Answer: The IC50 was greater than 10 µM.

Question: Which inhibition at 10 µM does the source give for `O=C(C1CC1)N1CC(CN2C(=O)C3(CC3)N=C2c2ccc(-c3cnc4cccnc4c3)cc2)C1` [compound 801, 5-(4-(1,5-naphthyridin-3-yl)phenyl)-6-((1-(cyclopropanecarbonyl)azetidin-3-yl)methyl),4-6diazaspiro[2.4]hept-4-en-7-one] here?
Answer: The inhibition at 10 µM was 6%.

Question: And the IC50?
Answer: Its IC50 is greater than 10 µM.

Question: For `N#Cc1cccc(-c2ccc(C3=NC4(CC4)C(=O)N3C[C@@H]3CCN(C(=O)C4CC4)C3)cc2)c1` [compound 123, 4′-(6-{[(3R)-1-(Cyclopropylcarbonyl)pyrrolidin-3-yl]methyl}-7-oxo-4,6-diazaspiro[2.4]hept-4-en-5-yl)biphenyl-3-carbonitrile], which inhibition at 10 µM is on record?
Answer: Its inhibition at 10 µM is 81.5%.

Question: And the IC50?
Answer: The IC50 was 1.26 µM.

Question: With `Cc1cc2cc(-c3ccc(C4=NC5(CC5)C(=O)N4CC4CN(C(=O)C5CC5)C4)c(F)c3)ccc2[nH]1` [compound 869, 6-((1-(cyclopropanecarbonyl)azetidin-3-yl)methyl)-5-(2-fluoro-4-(2-methyl-1H-indol-5-yl)phenyl)-4,6-diazaspiro[2.4]hept-4-en-7-one] as the compound, how does the IC50 read?
Answer: Its IC50 is 0.0468 µM.

Question: Which inhibition at 10 µM does the source give for `O=C(C1CC1)N1CC[C@@H](CN2C(=O)C3(CCCC3)N=C2c2ccc(-c3cccnc3)cc2)C1` [compound 5, 3-{[(3R)-1-(Cyclopropylcarbonyl)pyrrolidin-3-yl]methyl}-2-(4-pyridin-3-ylphenyl)-1,3-diazaspiro[4.4]non-1-en-4-one] here?
Answer: The inhibition at 10 µM was 74.6%.

Question: And the IC50?
Answer: The IC50 was 2.14 µM.

Question: `Cn1ncc2cc(-c3ccc(C4=NC5(CCOC5)C(=O)N4C[C@@H]4CCN(C(=O)C(F)(F)F)C4)cc3)ccc21` (stereo partly drawn) [compound 955, 2-(4-(1-methyl-1H-indazol-5-yl)phenyl)-3-(((R)-1-(2,2,2-trifluoroacetyl)pyrrolidin-3-yl)methyl)-7-oxa-1,3-diazaspiro[4.4]non-1-en-4-one] was tested. Which inhibition at 10 µM did it give?
Answer: Its inhibition at 10 µM is 34%.

Question: What about the IC50 of the same compound?
Answer: Its IC50 is greater than 10 µM.

Question: How did the inhibition at 10 µM turn out when `CC(C)N1CCC2(CC1)N=C(c1ccc(-c3ccc4occc4c3)cc1)N(C[C@@H]1CCN(C(=O)C3CC3)C1)C2=O` [compound 167, 2-[4-(1-Benzofuran-5-yl)phenyl]-3-{[(3R)-1-(cyclopropylcarbonyl)pyrrolidin-3-yl]methyl}-8-(1-methylethyl)-1,3,8-triazaspiro[4.5]dec-1-en-4-one] was run?
Answer: The inhibition at 10 µM was 96.4%.

Question: And the IC50?
Answer: The IC50 was 0.525 µM.

Question: With `Cc1cc(C2=NC3(CC3)C(=O)N2CC2CN(C(=O)C3CC3)C2)ccc1-c1ccc2occc2c1` [compound 393, 5-[4-(1-Benzofuran-5-yl)-3-methylphenyl]-6-{[1-(cyclopropylcarbonyl)azetidin-3-yl]methyl}-4,6-diazaspiro[2.4]hept-4-en-7-one] as the compound, how does the inhibition at 10 µM read?
Answer: Its inhibition at 10 µM is 62%.

Question: What about the IC50 of the same compound?
Answer: The IC50 was roughly 2.88 µM.

Question: How did the inhibition at 10 µM turn out when `Cn1cc(-c2ccc(-c3ccc(C4=NC5(CCOCC5)C(=O)N4CC4CN(C(=O)N5CCCC5)C4)cc3)cc2)cn1` [compound 697, 2-[4′-(1-Methyl-1H-pyrazol-4-yl)biphenyl-4-yl]-3-{[1-(pyrrolidin-1-ylcarbonyl)azetidin-3-yl]methyl}-8-oxa-1,3-diazaspiro[4.5]dec-1-en-4-one] was run?
Answer: The inhibition at 10 µM was 58%.

Question: And the IC50?
Answer: Its IC50 is 5.89 µM.

Question: With `Cc1cc(-c2ccc3c(cnn3C)c2)ccc1C1=NC2(CC2)C(=O)N1CC1CN(C(=O)C2(O)CCC2)C1` [compound 796, 6-((1-(1-hydroxycyclobutanecarbonyl)azetidin-3-yl)methyl)-5-(2-methyl-4-(1-methyl-1H-indazol-5-yl)phenyl)-4,6-diazaspiro[2.4]hept-4-en-7-one] as the compound, how does the inhibition at 10 µM read?
Answer: The inhibition at 10 µM was 19%.

Question: And the IC50?
Answer: Its IC50 is greater than 10 µM.

Question: `O=C(C1CC1)N1CC(CN2C(=O)C3(CCN(CCO)CC3)N=C2c2ccc(-c3ccc4[nH]ncc4c3)cc2)C1` [compound 758, 3-{[1-(Cyclopropylcarbonyl)azetidin-3-yl]methyl}-8-(2-hydroxyethyl)-2-[4-(1H-indazol-5-yl)phenyl]-1,3,8-triazaspiro[4.5]dec-1-en-4-one] was tested. Which inhibition at 10 µM did it give?
Answer: Its inhibition at 10 µM is 71%.

Question: What about the IC50 of the same compound?
Answer: The IC50 was 3.39 µM.

Question: `O=C(c1nccs1)N1CC[C@@H](CN2C(=O)C3(CCOCC3)N=C2c2ccc(-c3ccc4cccnc4c3)cc2)C1` [compound 666, 2-(4-Quinolin-7-ylphenyl)-3-{[(3R)-1-(1,3-thiazol-2-ylcarbonyl)pyrrolidin-3-yl]methyl}-8-oxa-1,3-diazaspiro[4.5]dec-1-en-4-one] was tested. Which inhibition at 10 µM did it give?
Answer: The inhibition at 10 µM was 62%.

Question: What about the IC50 of the same compound?
Answer: The IC50 was roughly 5.01 µM.

Question: What does the source list for `Cn1ncc2cc(-c3ccc(C4=NC5(CCOC5)C(=O)N4CC4CN(C(=O)C5CC5)C4)cc3)ccc21` (stereo not drawn) [compound 722, 3-{[1-(Cyclopropylcarbonyl)azetidin-3-yl]methyl}-2-[4-(1-methyl-1H-indazol-5-yl)phenyl]-7-oxa-1,3-diazaspiro[4.4]non-1-en-4-one]?
Answer: inhibition at 10 µM: 56%; IC50: 6.61 µM

Question: Which results are given for `Cn1c(=O)c2cc(-c3ccc(C4=NC5(CC5)C(=O)N4C[C@@H]4CCN(C(=O)C5CC5)C4)cc3)ccc2n1C` [compound 500, 5-[4-(6-{[(3R)-1-(Cyclopropylcarbonyl)pyrrolidin-3-yl]methyl}-7-oxo-4,6-diazaspiro[2.4]hept-4-rn-5-yl)phenyl]-1,2-dimethyl-1,2-dihydro-3H-indazol-3-one]?
Answer: inhibition at 10 µM: 74%; IC50: ~2.75 µM
